Measured values from BindingDB's records for patent WO2022070068 (JANSSEN BIOTECH, INC., 2022).
“And” between values parts separate entries of the source, which are not always exact repeats. Equal entries are not always repeated.

Molecular target: Dihydroorotate dehydrogenase (quinone), mitochondrial (Homo sapiens, UniProt Q02127)
Experiment: DHODH enzymatic assay
Method: To detect DHODH enzyme activities, dichloroindophenol (DCIP) is added as the final electron acceptor in the assay. DCIP can accept electrons from the reduced coenzyme Q generated in the assay, or from dihydroorotate (DHO) via FMN by binding presumably to the ubiquinone pocket. DCIP solutions are blue, with an intense absorbance around 600 nm, but becomes colorless upon reduction (J. Biol. Chem. (1986) 261, 11386). The assay buffer contained […], pH 7.5, 150 mM NaCl, 0.5 mM EDTA, and 0.1% Triton X-100 in MilliQ water. Substrate consisting of 20 mM DHO, 5mM CoQ6, and 1mM DCIP in assay buffer, initiates the reaction. The assay is run in end-point mode by quenching the reaction with the potent DHODH inhibitor brequinar. Absorbance measurements were obtained using the BMG Phera Star plate-reading spectrophotomer. Purified human DHODH was purchased from Proteros (cat. No. PR-0044). Chemicals were purchased from Sigma-Aldrich, Teknova, and Avanti Polar Lipids. Liquid handling was performed using Labcyte Echo and Formulatrix Tempest.

Chain of Dihydroorotate dehydrogenase (quinone), mitochondrial (Q02127 whole entry): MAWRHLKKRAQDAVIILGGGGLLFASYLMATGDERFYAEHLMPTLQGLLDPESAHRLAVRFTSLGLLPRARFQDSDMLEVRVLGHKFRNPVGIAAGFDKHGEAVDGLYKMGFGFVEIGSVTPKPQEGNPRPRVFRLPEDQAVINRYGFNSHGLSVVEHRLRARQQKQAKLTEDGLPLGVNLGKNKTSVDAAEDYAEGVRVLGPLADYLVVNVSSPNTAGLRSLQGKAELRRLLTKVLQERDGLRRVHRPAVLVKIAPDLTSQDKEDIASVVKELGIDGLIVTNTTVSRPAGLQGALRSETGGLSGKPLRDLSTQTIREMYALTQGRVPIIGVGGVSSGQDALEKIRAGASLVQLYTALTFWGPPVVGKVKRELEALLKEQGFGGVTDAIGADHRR

SMILES | IC50
Cc1ccccc1-n1nc(C(C)C)c2cc(-c3cn(C)c([C@@H](C)O)n3)c(F)cc2c1=O [WO2022070068, Example 15] | 2.6 nM
Cc1ccc(Cl)c(-n2cc(C(C)C)c3cc(-c4cn(C)c(C(C)(C)O)n4)c(F)cc3c2=O)n1 [WO2022070068, Example 27] | 1.4 nM
Cc1ccccc1-n1cc(C(C)C)c2cc(-c3ccc(C)c(N)n3)c(F)cc2c1=O [WO2022070068, Example 2] | 0.18 nM
Cc1cnc(-c2cc3c(C(C)C)cn(-c4ccccc4C)c(=O)c3cc2F)cc1N [WO2022070068, Example 3] | 3.6 nM
Cc1ccccc1-n1cc(C(C)C)c2cc(-c3nc(C(C)(C)O)n(C)n3)c(F)cc2c1=O [WO2022070068, Example 29] | 0.57 nM and 0.64 nM
Cc1ccccc1-n1cc(C(C)C)c2cc(-c3cn(C)c([C@@H](C)O)n3)c(F)cc2c1=O [WO2022070068, Example 11] | 0.51 nM
Cc1ccnc(Cl)c1-n1cc(C(C)C)c2cc(-c3nc(C(C)(C)O)n(C)n3)c(F)cc2c1=O [WO2022070068, Example 19] | 2.5 nM
Cc1ccccc1-n1cc(C(C)C)c2cc(-c3cn(C)c(CO)n3)c(F)cc2c1=O [WO2022070068, Example 8] | 1.2 nM
Cc1ccccc1-n1cc(C(C)C)c2cc(-c3cn(C)c([C@H](C)O)n3)c(F)cc2c1=O [WO2022070068, Example 10] | 0.73 nM
CCn1nc(-c2cc3c(C(C)C)cn(-c4ccccc4C)c(=O)c3cc2F)nc1C(C)=O [WO2022070068, Example 24] | 6.2 nM
Cc1ccccc1-n1cc(C(C)C)c2cc(-c3cn(C)c(C(C)(C)O)n3)c(F)cc2c1=O [WO2022070068, Example 23] | 0.38 nM and 0.54 nM
Cc1ccccc1-n1cc(C(C)C)c2cc(-c3nc(C(C)O)n(C)n3)c(F)cc2c1=O (racemic) [WO2022070068, Example 5] | 1.1 nM
Cc1n[nH]c(Cl)c1-n1cc(C(C)C)c2cc(-c3cn(C)c(C(C)(C)O)n3)c(F)cc2c1=O [WO2022070068, Example 16] | 0.51 nM
CCn1nc(-c2cc3c(C(C)C)cn(-c4ccccc4C)c(=O)c3cc2F)nc1C(C)O (stereo not given) [WO2022070068, Example 28] | 19 nM
Cc1ccccc1-n1cc(C(C)C)c2cc(-c3nc(CO)n(C)n3)c(F)cc2c1=O [WO2022070068, Example 9] | 2.6 nM
Cc1ccccc1-n1cc(C(C)C)c2cc(-c3nc([C@H](C)O)n(C)n3)c(F)cc2c1=O [WO2022070068, Example 13] | 0.48 nM and 1.1 nM
Cc1ccccc1-n1cc(C(C)C)c2cc(-c3cnc(C4CC4)cn3)c(F)cc2c1=O [WO2022070068, Example 1] | 2.6 nM

Continued, values first:

IC50 | SMILES
2 nM | Cc1ccnc(Cl)c1-n1cc(C(C)C)c2cc(-c3cn(C)c(C(C)(C)O)n3)c(F)cc2c1=O [WO2022070068, Example 18]
1.2 nM | COc1cc(-n2cc(C(C)C)c3cc(-c4nc(C(C)(C)O)n(C)n4)c(F)cc3c2=O)c(C)cn1 [WO2022070068, Example 26]
1.7 nM | CC(=O)c1nc(-c2cc3c(C(C)C)cn(-c4ccccc4C)c(=O)c3cc2F)nn1C [WO2022070068, Example 6]
0.71 nM | Cc1n[nH]c(Cl)c1-n1cc(C(C)C)c2cc(-c3nc(C(C)(C)O)n(C)n3)c(F)cc2c1=O [WO2022070068, Example 17]
1.6 nM and 2 nM | Cc1ccccc1-n1cc(C(C)C)c2cc(-c3nc([C@@H](C)O)n(C)n3)c(F)cc2c1=O [WO2022070068, Example 12]
27 nM | CCn1nc(-c2cc3c(C(C)C)cn(-c4ccccc4C)c(=O)c3cc2F)nc1C(C)(C)O [WO2022070068, Example 20]
1.2 nM | COc1cc(-n2cc(C(C)C)c3cc(-c4cn(C)c(C(C)(C)O)n4)c(F)cc3c2=O)c(C)cn1 [WO2022070068, Example 25]
0.45 nM | Cc1ccccc1-n1nc(C(C)C)c2cc(-c3cn(C)c(C(C)(C)O)n3)c(F)cc2c1=O [WO2022070068, Example 14]
